“Also recorded” adds a separate entry of the source.

One assay has as its system Candida albicans. Particulars: rich medium; reference [14]; cited from earlier work.
Assay [1] concerns Cryptococcus neoformans. The assay is described as follows: Plating assays (colony forming units) after exposure under slow growth conditions. The format is cell-based. The source says:
(§1) Here, we determined whether a trehalose-mimetic compound (Validamycin A) produced by a Streptomyces bacterium, could target the trehalose pathway in S. cerevisiae and in C. neoformans, and inhibit their cell division in sub-optimal growth conditions.

Assay [2] deals with Cryptococcus neoformans. The assay is described as follows: Cell division / growth by cell counting in rich versus slow growth (PUD) medium. The format is cell-based. Particulars: 0, 50, 100 mM. On the procedure:
Left panel: C. neoformans cells were grown in rich medium (YEP+2% (w/v) Dextrose) with 0 mM (black), 50 mM (gray), and 100 mM (dotted) concentrations of Validamycin A. Cells were counted each hour for 6 hours and relative growth per mL was assessed. Right panel: C. neoformans cells were grown for 24 hours in PUD media and then dosed with Validamycin A. Cells were grown in slow growth medium (PUD) with 0 mM (black), 50 mM (gray), and 100 mM (dotted) concentrations of Validamycin A for 7 days and then counted at time intervals shown. Media was changed every 24 hours to fresh media containing the indicated concentration of drug.
as §1

For `OCC1=C[C@@H](N[C@H]2C[C@H](CO)[C@@H](O[C@H]3O[C@@H](CO)[C@H](O)[C@@H](O)[C@@H]3O)[C@H](O)[C@H]2O)[C@H](O)[C@@H](O)[C@@H]1O` [Validamycin A], the “efficacy as an antifungal agent against C. albicans” value with Candida albicans is “not effective”. For the same compound, in the assay on Cryptococcus neoformans [1] (cells exposed under slow growth conditions (PUD medium)), the colony forming units entry is “substantially reduced”. Further, the “fungicidal activity (plating assays)” value in the assay on Cryptococcus neoformans [1] (slow growth conditions (PUD medium)) is given as “fungicidal”. For the same compound, the “effect on division rates / growth” value is given as “no effect; also recorded: not rich medium” in the assay on Cryptococcus neoformans [2] (optimal growth conditions, rich medium (YEPD+2% (w/v) Dextrose), counted each hour for 6 hours) and “severely inhibited; also recorded: inhibited in slow growth medium” in the assay on Cryptococcus neoformans [2] (slow growth conditions, PUD medium (PBS, 5 g/L Urea, 0.1% (w/v) dextrose; mimics cerebral spinal fluid), 7 days).

The values are drawn from US11078515B2, “Methods for identifying targets for antimicrobial and antiproliferative compounds and compositions therefrom” (MIMETICS, LLC, priority 2015, dated 2021).
